Assay results reported in paper PMC7876106 (Scientific Reports, 2021).

Assays:
[1] = tested on: TeloDNA (5'-fluorescein) (DNA, G4) TTAGGGTTAGGGTTAGGGTTAGGG; assay: fluorescence polarization; conditions: 150 mM KCl, NaCl or LiCl (salt not specified); 20 mM HEPES; 20 mM HEPES pH 7.5, room temperature, tRNA competitor added, 10 nM probe; apparent
TERRA and TRF2 complex = assay: FP inhibition assay, TRF2 GAR binding to TERRA; conditions: for IC50: FP, 10 nM peptide, 5 μM oligo; for Selectivity Ratio IC50 (Tel DNA/TERRA): ratio of FP IC50 values
Experimental: (§1) All the nucleic acids, peptides and chemicals were dissolved in buffer containing 20 mM HEPES pH7.5, 150 mM salt (KCl, NaCl, LiCl) at the stock concentration of 1 mM. For peptide and nucleic acid interactions, 25μL of each nucleic acids with a sequential twofold dilutions starting from 50 μM was added into each well of 96-well plate followed by adding 25μL of 10 nM FITC labeled TRF2 peptide. For compounds and nucleic acid interactions, 20μL of each compounds with a sequential twofold dilutions starting from 50 μM were added into each well of 96-well plate followed by adding 5μL of 20 ng/mL tRNA and 25μL of 10 nM FAM labeled nucleic acids. For inhibition assay, 5μL FITC labeled TRF2 GAR peptide (10 nM final concentration) and 10 μL oligos (5 μM final concentration) were mixed, followed by adding 5μL of each compound with a sequential twofold dilutions starting from 50 μM into each well of 384-well plate. All components were mixed thoroughly, and the plate was incubated at room temperature for 1 h before placing in an Envision Plate Reader for reading at 495/520 nm. All data curves were fitted using Prism 8.0.

[2] = tested on: TRF2 binding to telomere DNA; assay: DNA ChIP assay of TRF2 binding to telomere DNA in LOX cells; assay type: cell-based, human; conditions: 2 μM, 2 days
Experimental: The lysates were sonicated, cleared by centrifugation, and supernatants were diluted 10 fold into IP Buffer (0.01% SDS, 1.1% Triton X-100, 1.2mM EDTA, 16.7mM Tris pH 8.1, 167mM NaCl, protease inhibitors cocktail, 50U/ml SUPERase•in) for IP reaction with rabbit IgG (Santa Cruz Biotechnology) or rabbit polyclonal anti-TRF2 (Pocono Rabbit Farm) at 4 ° C overnight. Each immune complex was collected by Dynal A beads (Invitrogen), washed five times (1 ml wash, 10 mins each) in ChIP related wash buffer at 4 ° C, eluted by addition of 200µl Elution buffer (10mM Tris, pH 8.0, 5mM EDTA, 1% SDS, 50U/ml SUPERase.In) at 70 °C for 20 mins, and the elutes were placed at 70 °C for 2 hrs to reverse cross-linking. […]
DNA ChIP assays was performed as described previously 3 with minor modifications. Briefly, 1 x 10^7 LOX cells treated with indicated chemicals (2 µM) for 48 hrs were subject to ChIP analysis and immunoprecipitated DNA was assayed by DNA dot-blot using 32P-labeled (TTAGGG)4 or Alu probe. […]

[3] = tested on: TERRA antisense (5'-fluorescein) (RNA, single strand) CCCUAACCCUAACCCUAACCCUAA; assay: fluorescence polarization; conditions: 150 mM salt (KCl, NaCl or LiCl; which not stated); 20 mM HEPES pH 7.5, room temperature, tRNA competitor; dilutions from 50 μM compound
EBNA1 G4 RNA = assay: FP assay, compound binding to EBNA1 G4 RNA
Experimental: as §1

TERRA = assay: FP assay, compound binding to 5′ fluorescein-labeled TERRA; conditions: 10 nM fluorescein-labeled probe, 3 independent experiments
Experimental: as §1

[4] = tested on: telomere repeat DNA in LOX cells; assay: Telomere length analysis (PFGE, Southern blot) of LOX cells; assay type: cell-based, human; conditions: for telomere repeat DNA signals: TLA
Experimental: Genomic DNA was isolated from cells using a genomic DNA purification kit (Promega) and digested with AluI and MboI. Digested genomic DNA was purified by phenol/choloroform extraction and quantified using a Qubit 4 Fluorometer (Thermal Scientific). Equal amounts of digested DNA (5 μg) were separated by pulse-field gel electrophoresis (PFGE) performed with a 1% agarose gel at 6V/cm, switch times from 1 to 12s, 15 °C for 12h using CHEF-DRIII system (Bio-Rad). The DNA was transferred to GeneScreen Plus blotting membranes (Perkin-Elmer) and analyzed by Southern blot. The blots were hybridized with a 32P-labeled telomere repeat or […]
Alu probe at 42 °C overnight, then washed twice for 5 min each with 0.2 M wash buffer (0.2 M Na2HPO4 pH 7.2, 1 mM EDTA, and 2% SDS) at room temperature and once for 10 min with 0.1 M wash buffer at 42°C. Relative telomere-repeat signals were determined by Typhoon 9410 Imager and ImageQuant TL software (GE Healthcare). Signal intensity represents the percentage decrease of average telomere signals relative to dox (-) or PP control. […]
100, 1 mM EDTA in 1x PBS) before immuno-staining. Primary antibodies were prepared in blocking solution at following dilutions: anti-53BP1 (1:500, IHC-00001; Bethyl Laboratories) and γH2AX (1:2,000, A300-081A; Bethyl Laboratories). After IF, cells were fixed in 4% paraformaldehyde in 1x PBS for 10 min, washed in 1x PBS, dehydrated in ethanol series (70%, 95%, 100%), and air-dried. Coverslips were denatured for 5 min at 80-85° C in hybridization mix [70% formamide, 10 mM Tris-HCl, pH 7.2, and 0.5% blocking solution (Roche)] containing telomeric PNA-Cy3-(CCCTAA)3 probe, and hybridization was continued for 2 hrs at room temperature in the dark moisturized chambers. Coverslips were washed twice for 15 min each with 70% formamide, 10 mM Tris-HCl (pH 7.2), and 0.1% BSA, and followed by three washes for 5 min each with 0.15 M NaCl, 0.1 M Tris-HCl (pH 7.2), and 0.08% Tween-20. Nuclei were counterstained with 0.1 µg/ml DAPI in blocking solution and coverslips mounted with VectorShield (Vector Laboratories). RNA FISH was performed as previously described 1.
Images were captured with a 100x lens on a Nikon E600 Upright microscope (Nikon

[5] = tested on: TERRA (5'-fluorescein) (RNA, G4) UUAGGGUUAGGGUUAGGGUUAGGG; assay: fluorescence polarization; conditions: 150 mM KCl, NaCl or LiCl (salt not specified); 20 mM HEPES; 20 mM HEPES pH 7.5, room temperature, tRNA competitor added, 10 nM probe; apparent
[6] = tested on: TeloDNA (unlabelled) (DNA, G4) TTAGGGTTAGGGTTAGGGTTAGGG; assay: fluorescence polarization, displacement of TRF2 GAR peptide; conditions: 150 mM KCl, NaCl or LiCl (salt not specified); 20 mM HEPES; 20 mM HEPES pH 7.5, room temperature; FITC-TRF2 GAR peptide 10 nM displaced; 5 μM oligo
[7] = tested on: TeloDNA antisense (5'-fluorescein) (DNA, single strand) CCCTAACCCTAACCCTAACCCTAA; assay: fluorescence polarization; conditions: 150 mM salt (KCl, NaCl or LiCl; which not stated); 20 mM HEPES pH 7.5, room temperature, tRNA competitor; dilutions from 50 μM compound

| Compound | EC50 [1] | IC50 (TERRA and TRF2 complex) | Selectivity Ratio IC50 (Tel DNA/TERRA) (TERRA and TRF2 complex) | effect on TRF2 binding to telomere DNA [2] | binding [3] | EC50 (EBNA1 G4 RNA) | binding to EBNA1 G4 RNA (EBNA1 G4 RNA) | EC50 (TERRA) | telomere repeat DNA signals [4] | EC50 [5] | IC50 [6] | binding [7] | average telomere length ([4]; 2 μM, 2 and 3 days) |
| --- | --- | --- | --- | --- | --- | --- | --- | --- | --- | --- | --- | --- | --- |
| CN(C)c1ccc(Nc2c3ccc(NC(=O)CCN4CCCC4)cc3nc3cc(NC(=O)CCN4CCCC4)ccc23)cc1 [BRACO-19] | 3900 nM | 240 nM | 0.17 | Neither NMM, PP, nor BRACO-19 had any significant effect | no | 227 nM | high binding affinity | 7400 nM | to a lesser extent | 7400 nM | 40 nM | no |  |
| CCc1c(C)c2cc3nc(cc4nc(cc5c(CC)c(C)c(cc1[nH]2)n5C)C(C)=C4CCC(=O)O)C(CCC(=O)O)=C3C [NMM, N-methyl mesoporphyrin IX] | 4800 nM | 420 nM | 2.38 | Neither NMM, PP, nor BRACO-19 had any significant effect | no |  | did not display any binding | 680 nM | reduced telomere repeat DNA signals | 680 nM | 1000 nM | no | decrease in average telomere length |
